No end group written: not given here.

Test [1] has as its system Ova-peptide pulsed EL4 cells. Nature of the test: Cytotoxicity of spleen cells from vaccinated mice, 18-hour chromium release assay. It is filed as in vivo, C57BL/6 mice. As to conditions: mice immunized with the single component alone. As to the method: The purified hsp70 was combined with the synthesized peptides and used for immunization. To form the hsp70/peptide mixtures, approximately 15 μg (21.5 μM) hsp70 was combined with 5 μg of ova-peptide (0.5 mM, SEQ. ID. NO: 7) or 10 μg (0.5 mM) hybrid peptide (SEQ. ID NOS: 8 and 9) were mixed on ice to a final volume of 10 μl in Buffer B (final concentration: 20 mM Hepes pH 7.0, 150 mM KCl, 10 mM (NH4)2SO4, 2 mM MgCl2 and 2 mM MgADP, pH 7.0). The mixtures were incubated for 30 minutes at 37° C. and then used for in vivo immunizations.
C57BL/6 mice were immunized intradermally once a week for a total of two weeks with 10 μL of one of the mixtures described above or with a mixture of TITERMAX® (Vaxcell, Norcross, Ga.) and Ova-peptide (5 μg). One week after the second immunization, spleen cells were removed and mononuclear cells (6-8×10^7) were cultured with 3×10^6 γ-irradiated (3000 rad) stimulator cells. The stimulator cells were obtained from naive mice that had been sensitized in vitro with Ova-peptide (10 mg/ml) for 30 minutes at room temperature, washed and irradiated at 3000 rads.
Cytotoxicity of spleen cells from vaccinated mice were assayed on Ova-peptide pulsed EL4 cells in an 18-hour chromium release assay. CTL were generated by culturing in vivo immunized spleen cells for 5 days at a concentration of 10^6 cells/mL in RPMI medium, 10% FCS, penicillin, streptomycin and 2 mM L-glutamine, together with 3×10^6 γ-irradiated (3,000 rad) stimulator cells/mL. Target cells were prepared by culturing cells for 1 hour in the presence of 250 μCi of ^51Cr sodium chromate (DuPont, Boston, Mass.) in Tris-phosphate buffer, pH 7.4 at 37° C. for 60 minutes. After washing, 10^4 ^51Cr-labeled target cells were mixed with effector lymphocytes to yield several different effector/target (E/T) ratios and were incubated for 18 hours. Supernatants were harvested and the radio-activity was measured in a gamma counter. Percent specific lysis was calculated as: 100×[(cpm release by CTL-cpm spontaneous release)/(cpm maximal release—cpm spontaneous release)]. Maximal response was determined by addition of 1% Triton X-100. Spontaneous release of all target in the absence of effector cells was less than 25% of the maximal release.

In test [2] the target is T1, BiP (Mus musculus, UniProt P20029).
T1 construct: mature wild-type or KDEL-deleted BiP can be harvested from the periplasm; extra Met (initiator ATG of the 5' primer, ahead of the mature N-terminus) (N); made in house; host or cells: E. coli BL21, pET22, periplasmic extract
Nature of the test: Binding of 14C-labeled OVA-BiP to heat shock protein, co-elution on Sephacryl S-300 column. As to conditions: 100 μM 14C-labeled peptide, 50 μg BiP, 37° C., 30 minutes. The protocol:
^14C-labeled OVA-BiP was prepared by alkylation of OVA-BiP with ^14C-formaldehyde. 0.9 mg of OVA-BiP in 300 uL 10% DMSO/water was added to 175 μl of ^14C-formaldehyde (62 μCi) and immediately 50 uL of freshly made up 200 mM NaCNBH3 was added. The reaction was mixed and left at 25° C. for 3 hours. The labeled peptide was repurified by reverse phase HPLC on a C-4 column in a 15 minute 0-100% acetonitrile (0.1% TFA) gradient.
The ability of the OVA-BiP peptide to bind to heat shock proteins was measured by incubating 100 μM (5μg) ^14C-labeled OVA-BiP with 50 μg of BiP (prepared as in example 11), hsp70 (as prepared in Example 2) or grp96 (prepared as in Example 10) in a final volume of 20 μl of buffer (50 mM Mops, pH 7.2., […] NaCl, 5 mM MgAcetate) at 37° C. for 30 minutes. The samples were then spun down (5 minutes in a microfuge) and loaded onto a 17 cm long Sephacryl S-300 column equilibrated in binding buffer (50 mM Mops, pH 7.2., 200 mM NaCl, 5 mM MgAcetate) and fractions were collected dropwise. 50 μl of each ˜225 μl fraction was counted in scintillation liquid. 10 μl of each fraction was also run on a 12% SDS-PAGE reducing gel. […] The result for gp96 is unclear because the peak at fraction 11 (which may represent an aggregation phenomenon) and the gp96 peak (fraction 14) elute close together on the column used.

The target in the next test is T2, hsp70 (Mus musculus, UniProt P17879).
T2 construct: made in house; host or cells: E. coli DH5α, plasmid pMS236
The test is described as above. As to conditions: 100 μM 14C-labeled peptide, 50 μg hsp70, 37° C., 30 minutes. The protocol:
Purified mouse cytosolic hsp70 was prepared from E. coli DH5α cells transformed with pMS236 encoding mouse cytosolic hsp70. The cells were grown to an optical density (600 nm) of 0.6 at 37° C., and expression was induced by the addition of IPTG to a final concentration of 1 mM. Cells were harvested by centrifugation 2 to 5 hours post induction and the pellets were resuspended to 20 mL with Buffer A (20 mM Hepes pH 7.0, 25 mM KCl, 1 mM DTT, 10 mM (NH4)2SO4, 1 mM PMSF). The cells were lysed by passing three times through a French press. The lysate was cleared by a low speed spin, followed by centrifugation at 100,000×G for 30 minutes. The cleared lysate was applied to a Pharmacia XK26 column packed with 100 mL DEAE Sephacel and equilibrated with Buffer A at a flow rate of 0.6 cm/min. The column was washed to stable baseline with Buffer A and eluted with Buffer A adjusted to 175 mM KCl. […]
The ability of the OVA-BiP peptide to bind to heat shock proteins was measured by incubating 100 μM (5μg) ^14C-labeled OVA-BiP with 50 μg of BiP (prepared as in example 11), hsp70 (as prepared in Example 2) or grp96 (prepared as in Example 10) in a final volume of 20 μl of buffer (50 mM Mops, pH 7.2., […] NaCl, 5 mM MgAcetate) at 37° C. for 30 minutes. […] 50 μl of each ˜225 μl fraction was counted in scintillation liquid. […]

Test [3] deals with T1, BiP. Nature of the test: ATP-mediated peptide release, elution profile of 125I-OVA-BiP and BiP. It is filed as binding. To be noted: presence and absence of 2 mM ATP. The protocol:
To prepare ^125I-OVA-BiP, 250 μCi of monoiodinated Bolton-Hunter reagent was transferred into a stoppered vial and the solvent in which it was dissolved was evaporated with a gentle stream of argon gas. To the dried reagent 222 μL of 4.5 mg/mL OVA-BiP in 100 mM NaBO3, pH 8, […], 10% DMSO was added. The reaction was mixed and incubated at 25° C. for 45 minutes and continued at 4° C. for a further hour. The labeled peptide was repurified by reverse phase HPLC on a C-4 column in a 20 minute, 0-100% acetonitrile (0.1% TFA) gradient. The iodinated OVA-BiP was combined with BiP in substantially the same manner as the heat shock proteins in Example 7, except that since the iodinated peptide was at a very low concentration, 1 μl (approx 32 ng) of labeled peptide was mixed with 5 μg of unlabeled peptide and this was incubated with 50 μg of BiP in 20 μL of binding buffer. To observe ATP-mediated peptide release, ATP was added to a final concentration of 2 mM after the 30 minute incubation and incubated for a further 5 minutes prior to spinning. These samples were run on the same column as above, but equilibrated in binding buffer supplemented with 2 mM ATP. […] This is consistent with the observation that ATP mediates release of bound proteins or polypeptides from heat shock proteins.

T1 sequence (P20029 20-655): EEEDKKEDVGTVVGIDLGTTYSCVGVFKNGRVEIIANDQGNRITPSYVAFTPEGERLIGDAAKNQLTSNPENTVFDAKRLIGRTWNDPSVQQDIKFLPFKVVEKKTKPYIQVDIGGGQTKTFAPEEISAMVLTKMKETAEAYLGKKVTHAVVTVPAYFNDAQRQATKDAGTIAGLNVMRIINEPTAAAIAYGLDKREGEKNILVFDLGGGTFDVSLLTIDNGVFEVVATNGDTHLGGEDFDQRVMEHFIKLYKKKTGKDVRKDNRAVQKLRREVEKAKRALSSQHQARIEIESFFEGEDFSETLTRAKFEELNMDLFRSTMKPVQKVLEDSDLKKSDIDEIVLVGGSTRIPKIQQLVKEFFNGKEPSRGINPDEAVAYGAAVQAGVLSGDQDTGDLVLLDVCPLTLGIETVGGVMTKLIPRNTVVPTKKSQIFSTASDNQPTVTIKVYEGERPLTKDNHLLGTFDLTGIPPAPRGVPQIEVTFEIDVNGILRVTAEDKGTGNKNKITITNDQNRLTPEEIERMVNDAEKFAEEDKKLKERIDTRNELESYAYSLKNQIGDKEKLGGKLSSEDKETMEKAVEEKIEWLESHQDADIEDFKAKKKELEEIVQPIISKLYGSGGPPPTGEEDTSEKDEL
T2 sequence (P17879 whole entry): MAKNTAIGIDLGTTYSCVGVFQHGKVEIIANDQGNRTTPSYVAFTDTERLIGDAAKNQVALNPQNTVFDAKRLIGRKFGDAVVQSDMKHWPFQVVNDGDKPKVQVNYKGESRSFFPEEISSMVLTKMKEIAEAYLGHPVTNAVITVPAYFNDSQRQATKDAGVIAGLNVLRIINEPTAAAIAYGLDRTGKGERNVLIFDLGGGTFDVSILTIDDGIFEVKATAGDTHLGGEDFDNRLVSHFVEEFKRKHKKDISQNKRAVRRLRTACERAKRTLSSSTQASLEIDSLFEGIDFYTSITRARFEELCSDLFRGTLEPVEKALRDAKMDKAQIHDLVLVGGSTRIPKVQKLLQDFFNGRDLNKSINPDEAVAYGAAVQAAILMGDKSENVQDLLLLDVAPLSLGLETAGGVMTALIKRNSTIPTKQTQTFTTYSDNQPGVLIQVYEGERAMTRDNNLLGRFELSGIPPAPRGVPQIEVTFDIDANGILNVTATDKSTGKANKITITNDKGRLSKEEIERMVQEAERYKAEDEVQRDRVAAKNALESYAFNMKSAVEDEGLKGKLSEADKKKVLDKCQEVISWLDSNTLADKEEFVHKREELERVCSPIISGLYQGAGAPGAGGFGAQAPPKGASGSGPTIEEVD

As for HWDFAWPWGSGSIINFEKL [BiP-OVA], the “results on cells pulsed with Ova-peptide (FIG. 5A) versus cells not pulsed (FIG. 5B)” value in test [1] was “the same”.
For the substance SIINFEKLGSGHWDFAWPW [OVA-BiP], the “radio-activity co-eluting with heat shock protein (FIG. 6)” value in the test with BiP [2] is “significant amount of radio-activity elutes with BiP”; in the test with hsp70, “significant amount of radio-activity elutes with BiP and hsp70”. Besides, the “results on cells pulsed with Ova-peptide (FIG. 5A) versus cells not pulsed (FIG. 5B)” value in test [1] is on record as “the same”.
With “Ser-Ile-Ile-Asn-Phe-Glu-Lys-Leu (SIINFEKL) [Ova-peptide, OVA antigenic domain peptide, reference compound]”, the “results on cells pulsed with Ova-peptide (FIG. 5A) versus cells not pulsed (FIG. 5B)” value in test [1] is listed as “the same”.
As to “^125I-OVA-BiP: OVA-BiP labeled with monoiodinated Bolton-Hunter reagent (SIINFEKLGSGHWDFAWPW; also: labelled with monoiodinated (125I) Bolton-Hunter reagent, place not given here)”, the “release of hybrid peptide from BiP on addition of ATP (FIG. 7)” value with BiP [3] is reported as “addition of ATP causes the release”.
As for “hsp70: purified recombinant mouse cytosolic hsp70 from E. coli DH5α transformed with pMS236”, the “results on cells pulsed with Ova-peptide (FIG. 5A) versus cells not pulsed (FIG. 5B)” value in test [1] was “the same”.

The record behind these values is US6673348B2, “Heat shock protein-based vaccines and immunotherapies” (priority 1995, dated 2004).
